The record followed here is US8916592B2, “Malononitrile compounds” (Merial Limited, priority 2005, dated 2014).

Bounds are passed on as bounds.

What all share (format): in vivo
Series [1] relates to Boll Weevil (Anthonomus grandis). The series is described as follows: Activity against Boll Weevil (eggs sprayed in microtiterplates). The note with it: 3 to 5 days, untreated controls 0% mortality. The procedure: The active compounds were formulated in 1:3 DMSO:water. 10 to 15 eggs were placed into microtiterplates filled with 2% agar-agar in water and 300 ppm formaline. The eggs were sprayed with 20 μl of the test solution, the plates were sealed with pierced foils and kept at 24-26° C. and 75-85% humidity with a day/night cycle for 3 to 5 days. Mortality was assessed on the basis of the remaining unhatched eggs or larvae on the agar surface and/or quantity and depth of the digging channels caused by the hatched larvae. Tests were replicated 2 times.

Series [2] deals with Mediterranean Fruitfly (Ceratitis capitata). The series is described as follows: Activity against Mediterranean Fruitfly (eggs sprayed in microtiterplates). Conditions: 144 h, 6 days, untreated controls 0% mortality. The procedure:
The active compounds were formulated in 1:3 DMSO:water. 50 to 80 eggs were placed into microtiterplates filled with 0.5% agar-agar and 14% diet in water. The eggs were sprayed with 5 μl of the test solution, the plates were sealed with pierced foils and kept at 27-29° C. and 75-85% humidity under fluorescent light for 6 days. Mortality was assessed on the baswas of the agility of the hatched larvae. Tests were replicated 2 times.

In series [3] the test system is Vetch Aphid (Megoura viciae). Nature of the series: Activity against Vetch Aphid (sprayed bean leaf disks). The note with it: foliar, 144 h, adult aphids, 6 days, untreated controls 0% mortality. The procedure:
The active compounds were formulated in 1:3 DMSO:water. Bean leaf disks were placed into microtiterplates filled with 0.8% agar-agar and 2.5 ppm OPUS™. The leaf disks were sprayed with 2.5 μl of the test solution and 5 to 8 adult aphids were placed into the microtiterplates which were then closed and kept at 22-24° C. and 35-45% under fluorescent light for 6 days. Mortality was assessed on the basis of vital, reproduced aphids. Tests were replicated 2 times.

For series [4], the system named is Brown Planthopper (Nilaparvata lugens). The series is described as follows: Activity against Brown Planthopper (sprayed rice seedlings). The note with it: 300 ppm, 10 adults, recorded after 24, 72 and 120 hours. The procedure:
The active compounds were formulated in 50:50 acetone:water. Potted rice seedlings were sprayed with 10 ml test solution, air dried, placed in cages and inoculated with 10 adults. Percent mortality was recorded after 24, 72 and 120 hours.

Consider `N#CC(C#N)(CSC(F)(F)F)Cc1ccc(Cl)c(Cl)c1` [Compound I-1, 2-(3,4-dichloro-benzyl)-2-trifluoromethylsulfanylmethyl-malononitrile], for which the mortality at 2500 ppm in series [1] and in series [2] was more than 75% in each case.
In the case of `N#CC(C#N)(CCSC(F)(F)F)Cc1ccc(Cl)c(Cl)c1` [Compound I-7, 2-(3,4-Dichloro-benzyl)-2-(2-trifluoromethylsulfanyl-ethyl)-malononitrile], the mortality at 2500 ppm in series [1], in series [2] and in series [3] was more than 75% each time.
Consider `N#CC(C#N)(CC[S+]([O-])C(F)(F)F)Cc1ccc(Cl)c(Cl)c1` (stereo not shown) [Compound I-15, 2-(3,4-Dichlorobenzyl)-2-(2-trifluoromethanesulfinyl-ethyl)-malononitrile], for which the mortality at 2500 ppm in series [1] and in series [2] was more than 75% each time.
As for `N#CC(C#N)(CCS(=O)(=O)C(F)(F)F)Cc1ccc(Cl)c(Cl)c1` [Compound I-19, 2-(3,4-Dichlorobenzyl)-2-(2-trifluoromethanesulfonyl-ethyl)-malononitrile], the mortality at 2500 ppm in series [1] and in series [2] was more than 75% in each case.
On to `CC(C)(C)c1cc(CC(C#N)(C#N)CCSC(F)(F)F)on1` [Compound I-35], for which the mortality entry in series [4] is listed as “over 90%”.
